In paper PMC9098524, “Structural basis of ion – substrate coupling in the Na^+-dependent dicarboxylate transporter VcINDY” (Nature Communications, 2022):

Target: T1, VcINDY (Vibrio cholerae, UniProt Q9KNE0)
T1 construct: gene VC_A0025
Experiment: intrinsic tryptophan fluorescence quenching ([…] nm excitation, […] nm emission), quadratic binding fit
Settings: read-out: apparent Kd

Which Kd does the source give for `O=C(O)CCC(=O)O` [succinate] here?
Its Kd is 92.2 ± 47.4 µM.
